Values after ≈ are worked out from the molar mass of the structure shown. Some results are limits rather than exact numbers.

Consider five compounds from patent US4552701A, “Glycopeptide antibiotics and process of preparation” (Eli Lilly and Company, priority 1984, dated 1985).

Assay [1] relates to Streptococcus faecium ATCC 9790. Type of assay: cell-based. The note with it: agar dilution.
Assay [2] relates to Staphylococcus aureus NRRL B313. The settings on record: agar dilution.
Assay [3] has as its system Haemophilus influenzae 76. In kind it is cell-based. The settings on record: agar dilution.
Assay [4] has as its system Staphylococcus aureus V41. The note with it: agar dilution.
The subject of assay [5] is Streptococcus sp. group D 2041. In kind it is cell-based. The settings on record: agar dilution.
A further assay has as its system Escherichia coli N10. In kind it is cell-based. The settings on record: agar dilution.
Another assay deals with Escherichia coli TEM. In kind it is cell-based. The settings on record: agar dilution.
Assay [6] relates to Staphylococcus aureus X400. The note with it: agar dilution.
For the next assay, the system named is Klebsiella pneumonia X26. In kind it is cell-based. The settings on record: agar dilution.
Assay [7] concerns Staphylococcus epidermidis EP11. In kind it is cell-based. The note with it: agar dilution.
Assay [8] has as its system Haemophilus influenzae C.L. Type of assay: cell-based. The settings on record: agar dilution.
Another assay relates to Escherichia coli EC14. Type of assay: cell-based. The settings on record: agar dilution.
The test system of assay [9] is Streptococcus pyogenes C203. In kind it is cell-based. The note with it: agar dilution.
In assay [10] the test system is Staphylococcus epidermidis 222. In kind it is cell-based. The settings on record: agar dilution.
A further assay concerns Klebsiella pneumonia KAE. In kind it is cell-based. The note with it: agar dilution.
Assay [11] relates to Streptococcus pneumoniae Park 1. Type of assay: cell-based. The settings on record: agar dilution.
The test system of another assay is Klebsiella pneumonia X68. In kind it is cell-based. The settings on record: agar dilution.
The subject of assay [12] is Bacteroides fragilis 1936B. In kind it is cell-based. The settings on record: agar dilution, read after 24 hrs.
Assay [13] relates to Bacteroides melaninogenicus 2736. In kind it is cell-based. The settings on record: agar dilution, read after 24 hrs.
Assay [14] deals with Bacteroides thetaiotaomicron 1438. In kind it is cell-based. The note with it: agar dilution, read after 24 hrs.
Assay [15] deals with Bacteroides vulgatis 1211. In kind it is cell-based. The note with it: agar dilution, read after 24 hrs.
Another assay has as its system Bacteroides fragilis 111. Type of assay: cell-based. The settings on record: agar dilution, read after 24 hrs.
Assay [16] deals with Clostridium perfringens 81. Type of assay: cell-based. The settings on record: agar dilution, read after 24 hrs.
Assay [17] has as its system Fusobacterium symbiosum 1470. Type of assay: cell-based. The note with it: agar dilution, read after 24 hrs.
For assay [18], the system named is Peptostreptococcus anaerobius 1428. In kind it is cell-based. The note with it: agar dilution, read after 24 hrs.
The next assay relates to Peptococcus prevoti 1281. The settings on record: agar dilution, read after 24 hrs.
The subject of the next assay is Streptococcus pyogenes. In words: experimental bacterial infection in mice, ED50. Type of assay: in vivo. The settings on record: subcutaneous, two doses. How it is done:
(§1) The formula 1 compounds have also shown in vivo antimicrobial activity against experimental bacterial infections. When two doses of test compound were administered to mice in experimental infections, the activity observed was measured as an ED50 value [effective dose in mg/kg to protect 50% of the test animals: see Warren Wick, et al., J. Bacteriol. 81, 233-235 (1961)].

For a further assay, the system named is Streptococcus pneumoniae. In words: experimental bacterial infection in mice, ED50. The settings on record: subcutaneous, two doses. Type of assay: in vivo. How it is done:
as §1

The next assay has as its system Staphylococcus aureus. In words: experimental bacterial infection in mice, ED50. Type of assay: in vivo. The settings on record: subcutaneous, two doses. How it is done:
as §1

Assay [19] has as its system Bacteroides fragilis 1877. Type of assay: cell-based. The note with it: agar dilution, read after 24 hrs.
Assay [20] deals with Propionibacterium acnes 79. In kind it is cell-based. The note with it: agar dilution, read after 24 hrs.
The subject of assay [21] is Eubacterium aerofaciens 1235. In kind it is cell-based. The settings on record: agar dilution, read after 24 hrs.
Assay [22] concerns Clostridium septicum 1128. Type of assay: cell-based. The note with it: agar dilution, read after 24 hrs. How it is done: (§2) | read after 24hrs. incubation.
The test system of assay [23] is Clostridium difficile 2994. Type of assay: cell-based. The note with it: agar dilution, read after 24 hrs. The protocol:
as §2

For assay [24], the system named is Peptococcus asaccharolyticus 1302. Type of assay: cell-based. The settings on record: agar dilution, read after 24 hrs.
Assay [25] relates to Bacteroides melaninogenicus 1856/28. Type of assay: cell-based. The settings on record: agar dilution, read after 24 hrs.
Assay [26] relates to Bacteroides corrodens 1874. In kind it is cell-based. The settings on record: agar dilution, read after 24 hrs.
Assay [27] deals with Fusobacterium necrophorum 6054A. Type of assay: cell-based. The settings on record: agar dilution, read after 24 hrs.
Assay [28] concerns Peptostreptococcus intermedius 1264. In kind it is cell-based. The settings on record: agar dilution, read after 24 hrs.

Turning to `CC(C)C[C@H](C(=O)N[C@H]1C(=O)N[C@@H](CC(N)=O)C(=O)N[C@H]2C(=O)N[C@H]3C(=O)N[C@H](C(=O)N[C@H](C(=O)[O-])c4cc(O)cc(O)c4-c4cc3ccc4O)[C@H](O)c3ccc(c(Cl)c3)Oc3cc2cc(c3O[C@@H]2O[C@H](CO)[C@@H](O)[C@H](O)[C@H]2O)Oc2ccc(cc2Cl)[C@H]1O)[N+](C)(C)C` [Compound 5, M43C], the MIC in assay [1] is 4 µg/mL (≈ 3 µM); in assay [2] it was 2 µg/mL (≈ 1.5 µM); in assay [3], 64 µg/mL (≈ 48 µM); in [4], 2 µg/mL (≈ 1.5 µM); in assay [5], 8 µg/mL (≈ 6 µM); in the assay on Escherichia coli N10 it was over 64 µg/mL. The MIC with Escherichia coli TEM was over 64 µg/mL; in [6], 2 µg/mL (≈ 1.5 µM); against Klebsiella pneumonia X26, over 64 µg/mL; in assay [7], 8 µg/mL (≈ 6 µM); in assay [8] it was over 64 µg/mL; against Escherichia coli EC14, over 64 µg/mL. Besides, the MIC in assay [9] was 1 µg/mL (≈ 0.75 µM); in assay [10] it was 4 µg/mL (≈ 3 µM); against Klebsiella pneumonia KAE, over 64 µg/mL; in assay [11] it was 1 µg/mL (≈ 0.75 µM); against Klebsiella pneumonia X68, over 64 µg/mL.

For the compound `CC(C)C[C@@H](N)C(=O)N[C@H]1C(=O)N[C@@H](CC(N)=O)C(=O)N[C@H]2C(=O)N[C@H]3C(=O)N[C@H](C(=O)N[C@H](C(=O)O)c4cc(O)cc(O)c4-c4cc3ccc4O)[C@H](O)c3ccc(c(Cl)c3)Oc3cc2cc(c3O)Oc2ccc(cc2Cl)[C@H]1O` [Compound 9, Agluco-A51568A], the MIC in assay [12] was 64 µg/mL (≈ 56.6 µM); in [13], 4 µg/mL (≈ 3.54 µM); in [1] it was 1 µg/mL (≈ 0.885 µM); in [2] it was 0.5 µg/mL (≈ 0.443 µM); in assay [3], 128 µg/mL (≈ 113 µM); in assay [4], 0.5 µg/mL (≈ 0.443 µM). The MIC in assay [5] is 2 µg/mL (≈ 1.77 µM); in the assay on Escherichia coli N10, over 128 µg/mL; in the assay with Escherichia coli TEM, over 128 µg/mL; in assay [6], 0.5 µg/mL (≈ 0.443 µM); in the assay with Klebsiella pneumonia X26 it was over 128 µg/mL; in [14], 64 µg/mL (≈ 56.6 µM). In addition, the MIC in assay [7] was 1 µg/mL (≈ 0.885 µM); in assay [8], 128 µg/mL (≈ 113 µM); in assay [15] it was 1 µg/mL (≈ 0.885 µM); in the assay on Escherichia coli EC14, over 128 µg/mL; against Bacteroides fragilis 111, 64 µg/mL (≈ 56.6 µM); in [16], 1 µg/mL (≈ 0.885 µM). For the same compound, the MIC is 4 µg/mL (≈ 3.54 µM) in [17]; 1 µg/mL (≈ 0.885 µM) in assay [9]; at least 0.5 µg/mL in assay [18]; 1 µg/mL (≈ 0.885 µM) with Peptococcus prevoti 1281; 64 µg/mL (≈ 56.6 µM) in [19]; 1 µg/mL (≈ 0.885 µM) in [10]. Further, the MIC in [20] is 1 µg/mL (≈ 0.885 µM); in assay [21] it was 1 µg/mL (≈ 0.885 µM); in assay [22] it was 1 µg/mL (≈ 0.885 µM); in assay [23] it was 1 µg/mL (≈ 0.885 µM); with Klebsiella pneumonia KAE it was over 128 µg/mL; in [24] it was 1 µg/mL (≈ 0.885 µM). The MIC in [25] is over 128 µg/mL; in assay [26] it was 64 µg/mL (≈ 56.6 µM); in assay [11] it was 0.5 µg/mL (≈ 0.443 µM); in assay [27], at least 0.5 µg/mL; in assay [28], 1 µg/mL (≈ 0.885 µM); against Klebsiella pneumonia X68, over 128 µg/mL. Besides, the ED50 in the assay on Streptococcus pyogenes is given as 2.0 mg/kg/2; in the assay on Streptococcus pneumoniae, 1.8 mg/kg/2; in the assay on Staphylococcus aureus, 0.74 mg/kg/2.

For the compound `CC(C)C[C@H](C(=O)N[C@H]1C(=O)N[C@@H](CC(N)=O)C(=O)N[C@H]2C(=O)N[C@H]3C(=O)N[C@H](C(=O)N[C@H](C(=O)[O-])c4cc(O)cc(O)c4-c4cc3ccc4O)[C@H](O)c3ccc(c(Cl)c3)Oc3cc2cc(c3O)Oc2ccc(cc2Cl)[C@H]1O)[N+](C)(C)C` [Compound 11, Agluco-M43A], the MIC in assay [1] is 2 µg/mL (≈ 1.71 µM); in [2], 2 µg/mL (≈ 1.71 µM); in assay [3], 32 µg/mL (≈ 27.3 µM); in assay [4] it was 2 µg/mL (≈ 1.71 µM); in assay [5] it was 4 µg/mL (≈ 3.41 µM); against Escherichia coli N10, over 128 µg/mL. Moreover, the MIC in the assay with Escherichia coli TEM is over 128 µg/mL; in [6] it was 2 µg/mL (≈ 1.71 µM); against Klebsiella pneumonia X26, over 128 µg/mL; in assay [7], 2 µg/mL (≈ 1.71 µM); in assay [8], 128 µg/mL (≈ 109 µM); against Escherichia coli EC14, over 128 µg/mL. The MIC in assay [9] is 2 µg/mL (≈ 1.71 µM); in assay [10] it was 2 µg/mL (≈ 1.71 µM); against Klebsiella pneumonia KAE it was over 128 µg/mL; in [11], 1 µg/mL (≈ 0.853 µM); against Klebsiella pneumonia X68, over 128 µg/mL. The values for the ED50 in the assay with Streptococcus pyogenes, with Streptococcus pneumoniae and in the assay on Staphylococcus aureus were 3.63 mg/kg/2, 3.06 mg/kg/2 and 3.06 mg/kg/2, respectively.

Regarding `CC(C)C[C@@H](N)C(=O)N[C@H]1C(=O)N[C@@H](CC(N)=O)C(=O)N[C@H]2C(=O)N[C@H]3C(=O)N[C@H](C(=O)N[C@H](C(=O)O)c4cc(O)cc(O)c4-c4cc3ccc4O)[C@H](O)c3ccc(c(Cl)c3)Oc3cc2cc(c3O[C@@H]2O[C@H](CO)[C@@H](O)[C@H](O)[C@H]2O)Oc2ccc(cc2Cl)[C@H]1O` [Compound 12, Desvancosamine-A51568A], the MIC in [1] was 4 µg/mL (≈ 3.1 µM); in [2], 2 µg/mL (≈ 1.55 µM); in [3], over 128 µg/mL; in assay [4], 2 µg/mL (≈ 1.55 µM); in [5] it was 8 µg/mL (≈ 6.19 µM); with Escherichia coli N10, over 128 µg/mL. The MIC with Escherichia coli TEM was 128 µg/mL (≈ 99.1 µM); in [6], 2 µg/mL (≈ 1.55 µM); with Klebsiella pneumonia X26 it was over 128 µg/mL; in [7], 4 µg/mL (≈ 3.1 µM); in [8], over 128 µg/mL; in the assay on Escherichia coli EC14, over 128 µg/mL. For the same compound, the MIC in assay [9] is 2 µg/mL (≈ 1.55 µM); in assay [10], 4 µg/mL (≈ 3.1 µM); with Klebsiella pneumonia KAE, over 128 µg/mL; in assay [11], 1 µg/mL (≈ 0.774 µM); against Klebsiella pneumonia X68, over 128 µg/mL.

For the compound `CN[C@H](CC(C)C)C(=O)N[C@H]1C(=O)N[C@@H](CC(N)=O)C(=O)N[C@H]2C(=O)N[C@H]3C(=O)N[C@H](C(=O)N[C@H](C(=O)O)c4cc(O)cc(O)c4-c4cc3ccc4O)[C@H](O)c3ccc(c(Cl)c3)Oc3cc2cc(c3O[C@@H]2O[C@H](CO)[C@@H](O)[C@H](O)[C@H]2O)Oc2ccc(cc2Cl)[C@H]1O` [Compound 13, Desvancosamine-Vancomycin], the MIC in [1] was 8 µg/mL (≈ 6.13 µM); in [2], 8 µg/mL (≈ 6.13 µM); in [3], 128 µg/mL (≈ 98 µM); in assay [4], 8 µg/mL (≈ 6.13 µM); in assay [5] it was 32 µg/mL (≈ 24.5 µM); against Escherichia coli N10 it was over 128 µg/mL. Besides, the MIC with Escherichia coli TEM was over 128 µg/mL; in assay [6], 8 µg/mL (≈ 6.13 µM); in the assay on Klebsiella pneumonia X26, over 128 µg/mL; in [7] it was 16 µg/mL (≈ 12.3 µM); in assay [8] it was over 128 µg/mL; against Escherichia coli EC14 it was over 128 µg/mL. Also, the MIC is 4 µg/mL (≈ 3.06 µM) in [9]; 8 µg/mL (≈ 6.13 µM) in assay [10]; over 128 µg/mL in the assay on Klebsiella pneumonia KAE; 4 µg/mL (≈ 3.06 µM) in assay [11]; over 128 µg/mL with Klebsiella pneumonia X68.
